Literature values in patent US10001483B2, “Methods for the treatment of Kaposi's sarcoma or KSHV-induced lymphoma using immunomodulatory compounds, and uses of biomarkers” (Celgene Corporation, priority 2015, dated 2018).
Like-named read-outs stand apart in the source and are kept apart here.

Settings: patients, cited from earlier work

Compound | Cmax (approved dose 200 mg) [ng/mL] | Plasma Serum Concentration (approved dose 200 mg) [µM] | Cmax (approved dose 25 mg) [ng/mL] | Plasma Serum Concentration (approved dose 25 mg) [µM]
O=C1CCC(N2C(=O)c3ccccc3C2=O)C(=O)N1 (stereo not shown) [thalidomide, 2-(2,6-dioxopiperidin-3-yl)-1H-isoindole-1,3(2H)-dione] | 1760 | 7 |  | 
Nc1cccc2c1CN(C1CCC(=O)NC1=O)C2=O (stereo not shown) [lenalidomide, 3-(4-amino-1-oxo 1,3-dihydro-2H-isoindol-2-yl) piperidine-2,6-dione] |  |  | 451 | 2
